Data from patent US20220125765A1, “PHARMACEUTICAL COMBINATIONS COMPRISING MEBENDAZOLE AND A STRONG OR MODERATE CYP1A2 INHIBITOR” (ZEPHAPHARM LTD, priority 2019, published 2022).
Read-outs that look alike come from different tables or passages of the source.

Key:
Assay type in all cases: cell-based
[1] = system: SXFE RD-ES; experiment: 2D monolayer CellTiter-Blue viability, Ewing sarcoma RD-ES; details: 72 h
Method: (§1) Seventeen compounds, including mebendazole (Batch no. […] Efficacy of compounds was assessed using CellTiter-Blue® Cell Viability Assay. Anti-tumor activity is expressed as absolute and relative IC50 and IC70 values, calculated by non-linear regression analysis.

[2] = system: SXFS TE671; experiment: 2D monolayer CellTiter-Blue viability, soft tissue sarcoma TE671; details: 72 h
Method: as §1

[3] = system: SXFS U-2197; experiment: 2D monolayer CellTiter-Blue viability, soft tissue sarcoma U-2197; details: 72 h
Method: as §1

[4] = system: 6 ovarian cancer (OVXF) and 6 renal cancer (RXF) cell lines; experiment: 2D monolayer CellTiter-Blue viability, panel geometric mean (Example 10); details: 12 cell lines, 72 h
Method: (§2) Mebendazole was tested in vitro across a panel of 12 tumor cell lines of ovarian and renal cancer by using a 2D monolayer assay. […] OVXF 899L and RXF 486L are P-gp expressing, multidrug resistant cell lines.
(§3) Anti-tumor activity is expressed as absolute and relative IC50/70 values, calculated by 4-parameter non-linear curve fit.

[5] = system: OVXF 1023L; experiment: 2D monolayer CellTiter-Blue viability, ovarian cancer OVXF 1023L; details: for IC50: Homo sapiens, OVXF1023; for Test/Control (%) at Drug Concentration: 72 h
Method: as §2, §3

[6] = system: RXF 1183L; experiment: 2D monolayer CellTiter-Blue viability, renal cancer RXF 1183L; details: for Test/Control (%) at Drug Concentration: 72 h
Method: as §2, §3

[7] = system: RXF 1220L; experiment: 2D monolayer CellTiter-Blue viability, renal cancer RXF 1220L; details: for Test/Control (%) at Drug Concentration: 72 h
Method: as §2, §3

Compound: COC(=O)Nc1nc2ccc(C(=O)c3ccccc3)cc2[nH]1 [Mebendazole, methyl N-(6-benzoyl-1H-benzimidazol-2-yl)carbamate]
- Test/Control (%) at Drug Concentration ([1]; 1.0E+00 μM): 14%
- Test/Control (%) at Drug Concentration ([1]; 1.0E+01 μM): 6%
- Test/Control (%) at Drug Concentration ([1]; 1.0E+02 μM): 3%
- Test/Control (%) at Drug Concentration ([1]; 1.0E−01 μM): 78%
- Test/Control (%) at Drug Concentration ([1]; 1.0E−02 μM): 88%
- Test/Control (%) at Drug Concentration ([1]; 3.2E+00 μM): 7%
- Test/Control (%) at Drug Concentration ([1]; 3.2E+01 μM): 5%
- Test/Control (%) at Drug Concentration ([1]; 3.2E−01 μM): 29%
- Test/Control (%) at Drug Concentration ([1]; 3.2E−02 μM): 84%
- Test/Control (%) at Drug Concentration ([1]; 3.2E−03 μM): 93%
- Test/Control (%) at Drug Concentration ([2]; TE671, 1.0E+00 μM): 38%
- Test/Control (%) at Drug Concentration ([2]; TE671, 1.0E+01 μM): 17%
- Test/Control (%) at Drug Concentration ([2]; TE671, 1.0E+02 μM): 5%
- Test/Control (%) at Drug Concentration ([2]; TE671, 1.0E−01 μM): 72%
- Test/Control (%) at Drug Concentration ([2]; TE671, 1.0E−02 μM): 87%
- Test/Control (%) at Drug Concentration ([2]; TE671, 3.2E+00 μM): 32%
- Test/Control (%) at Drug Concentration ([2]; TE671, 3.2E+01 μM): 13%
- Test/Control (%) at Drug Concentration ([2]; TE671, 3.2E−01 μM): 45%
- Test/Control (%) at Drug Concentration ([2]; TE671, 3.2E−02 μM): 85%
- Test/Control (%) at Drug Concentration ([2]; TE671, 3.2E−03 μM): 80%
- Test/Control (%) at Drug Concentration ([3]; U-2197, 1.0E+00 μM): 42%
- Test/Control (%) at Drug Concentration ([3]; U-2197, 1.0E+01 μM): 37%
- Test/Control (%) at Drug Concentration ([3]; U-2197, 1.0E+02 μM): 18%
- Test/Control (%) at Drug Concentration ([3]; U-2197, 1.0E−01 μM): 91%
- Test/Control (%) at Drug Concentration ([3]; U-2197, 1.0E−02 μM): 93%
- Test/Control (%) at Drug Concentration ([3]; U-2197, 3.2E+00 μM): 44%
- Test/Control (%) at Drug Concentration ([3]; U-2197, 3.2E+01 μM): 36%
- Test/Control (%) at Drug Concentration ([3]; U-2197, 3.2E−01 μM): 79%
- Test/Control (%) at Drug Concentration ([3]; U-2197, 3.2E−02 μM): 93%
- Test/Control (%) at Drug Concentration ([3]; U-2197, 3.2E−03 μM): 93%
- Geometric mean Abs. IC70 [4]: 1.515 µM
- Geometric mean Rel. IC70 [4]: 0.801 µM
- IC50 ([4]; read-out: Geometric mean Abs. IC50): 0.941 µM
- IC50 ([4]; read-out: Geometric mean Rel. IC50): 0.587 µM
- IC50 ([5]; OVXF 1023, 72 h, read-out: Abs. IC50): > 3.2 µM
- IC50 ([5]; OVXF 1023, 72 h, read-out: Rel. IC50): > 3.2 µM
- Test/Control (%) at Drug Concentration ([5]; OVXF 1023, 1.0E+00 μM): 69%
- Test/Control (%) at Drug Concentration ([5]; OVXF 1023, 1.0E−01 μM): 94%
- Test/Control (%) at Drug Concentration ([5]; OVXF 1023, 1.0E−02 μM): 101%
- Test/Control (%) at Drug Concentration ([5]; OVXF 1023, 1.0E−03 μM): 104%
- Test/Control (%) at Drug Concentration ([5]; OVXF 1023, 1.0E−04 μM): 107%
- Test/Control (%) at Drug Concentration ([5]; OVXF 1023, 3.2E+00 μM): 62%
- Test/Control (%) at Drug Concentration ([5]; OVXF 1023, 3.2E−01 μM): 82%
- Test/Control (%) at Drug Concentration ([5]; OVXF 1023, 3.2E−02 μM): 98%
- Test/Control (%) at Drug Concentration ([5]; OVXF 1023, 3.2E−03 μM): 101%
- Test/Control (%) at Drug Concentration ([5]; OVXF 1023, 3.2E−04 μM): 103%
- Abs. IC70 ([5]; OVXF 1023, 72 h): >3.200 µM
- Rel. IC70 ([5]; OVXF 1023, 72 h): >3.200 µM
- Bot. (%) ([5]; OVXF 1023, 72 h, curve fit): 2%
- Top (%) ([5]; OVXF 1023, 72 h, curve fit): 105%
- Test/Control (%) at Drug Concentration ([6]; RXF 1183, 1.0E+00 μM): 54%
- Test/Control (%) at Drug Concentration ([6]; RXF 1183, 1.0E−01 μM): 79%
- Test/Control (%) at Drug Concentration ([6]; RXF 1183, 1.0E−02 μM): 91%
- Test/Control (%) at Drug Concentration ([6]; RXF 1183, 1.0E−03 μM): 93%
- Test/Control (%) at Drug Concentration ([6]; RXF 1183, 1.0E−04 μM): 91%
- Test/Control (%) at Drug Concentration ([6]; RXF 1183, 3.2E+00 μM): 32%
- Test/Control (%) at Drug Concentration ([6]; RXF 1183, 3.2E−01 μM): 58%
- Test/Control (%) at Drug Concentration ([6]; RXF 1183, 3.2E−02 μM): 80%
- Test/Control (%) at Drug Concentration ([6]; RXF 1183, 3.2E−03 μM): 88%
- Test/Control (%) at Drug Concentration ([6]; RXF 1183, 3.2E−04 μM): 88%
- Abs. IC70 ([6]; RXF 1183, 72 h): >3.200 µM
- Rel. IC70 ([6]; RXF 1183, 72 h): >3.200 µM
- Bot. (%) ([6]; RXF 1183, 72 h, curve fit): 0%
- Top (%) ([6]; RXF 1183, 72 h, curve fit): 91%
- IC50 ([6]; RXF 1183, 72 h, read-out: Abs. IC50): 0.925 µM
- IC50 ([6]; RXF 1183, 72 h, read-out: Rel. IC50): 1.31 µM
- Test/Control (%) at Drug Concentration ([7]; RXF 1220, 1.0E+00 μM): 70%
- Test/Control (%) at Drug Concentration ([7]; RXF 1220, 1.0E−01 μM): 99%
- Test/Control (%) at Drug Concentration ([7]; RXF 1220, 1.0E−02 μM): 113%
- Test/Control (%) at Drug Concentration ([7]; RXF 1220, 1.0E−03 μM): 98%
- Test/Control (%) at Drug Concentration ([7]; RXF 1220, 1.0E−04 μM): 99%
- Test/Control (%) at Drug Concentration ([7]; RXF 1220, 3.2E+00 μM): 61%
- Test/Control (%) at Drug Concentration ([7]; RXF 1220, 3.2E−01 μM): 83%
- Test/Control (%) at Drug Concentration ([7]; RXF 1220, 3.2E−02 μM): 99%
- Test/Control (%) at Drug Concentration ([7]; RXF 1220, 3.2E−03 μM): 106%
- Test/Control (%) at Drug Concentration ([7]; RXF 1220, 3.2E−04 μM): 102%
- Abs. IC70 ([7]; RXF 1220, 72 h): >3.200 µM
- Rel. IC70 ([7]; RXF 1220, 72 h): 0.751 µM
- Bot. (%) ([7]; RXF 1220, 72 h, curve fit): 59%
- Top (%) ([7]; RXF 1220, 72 h, curve fit): 103%
- IC50 ([7]; RXF 1220, 72 h, read-out: Abs. IC50): > 3.2 µM
- IC50 ([7]; RXF 1220, 72 h, read-out: Rel. IC50): 0.398 µM
